Data on 25 compounds can be found in publication PMC6429159, “Evolution and Biological Evaluation of Matrinic Derivatives with Amantadine Fragments As New Anti-Influenza Virus Agents” (Molecules, 2019).

Each structure is given as a SMILES string. Structures can show the parent of a compound that is named as a salt.

Data set [1] has as its system influenza virus A/hanfang/359/95 (H3N2). Briefly: organism not typed. Conditions: MDCK cells; for IC50: 50% virus-inhibitory concentration after 40 hr at 37 °C, – = no anti-H3N2 activity at the maximum non-toxic concentration; for anti-H3N2 activity (in words): CPE assay. The data set is classed as cell-based.
In data set [2] the test system is influenza virus A/Fort Monmouth/1/1947 (H1N1). Briefly: organism not typed. The data set is classed as cell-based. The following applies: MDCK cells, CPE.
In a further data set the test system is MDCK cells. Briefly: Cytotoxicity assay. The data set is classed as cell-based. The following applies: 50% cytotoxic concentration, 48 hr. On the procedure: A three-fold dilution compound was added to cell monolayer, and the cells continued to be cultivated for 48 hr, and then the CPE was recorded. The TC50 value of each compound was calculated by the methods of Reed & Muench.

Data set [3] is described as follows: Stability assay in whole blood. Conditions: in vitro, 37 °C. In kind it is in vitro ADME, SD rats. The protocol:
The results hinted that 9f owned a good PK stability profile in blood, and it was chosen for the next investigation.
The fresh bloods were collected on the day of experiment from SD rats, and pre-warmed in a water bath at 37 °C. A concentration of 10 mM tested compound or enalapril stock solutions were prepared in DMSO, and then diluted with 45% MeOH/H2O to achieve […] dosing solutions. […] At the end of incubation, for each sample, […] water and […] of stop solution (200 ng·mL^−1 tolbutamide plus 20 ng·mL^−1 buspirone in acetonitrile) were immediately added to precipitate the protein, and centrifuged at 4000 rpm for 20 min. An aliquot of supernatant ([…]) was then extracted, mixed with […] H2O, and then shaken at 800 rpm for about 10 min before being submitted for a liquid chromatography-tandem mass […] (LC-MS/MS) analysis. The experiment was repeated twice.
Figure 3 The stability assessments of key compounds 9f and 9j in whole blood. […]

For the compound `O=C(OCCCC[C@@H]1[C@H]2CCCN3CCC[C@@H](CN1S(=O)(=O)c1ccc(C(F)(F)F)cc1)[C@@H]23)C12CC3CC(CC(C3)C1)C2` (as salt: hydrochloride) [Compound 9a, 12N-p-Trifluoromethlybenzenesulfonyl matrinic butyl adamantine-1’-carboxylate hydrochloride], the melting point was 231 °C (dec.).

`O=C(CC12CC3CC(CC(C3)C1)C2)OCCCC[C@@H]1[C@H]2CCCN3CCC[C@@H](CN1S(=O)(=O)c1ccc(C(F)(F)F)cc1)[C@@H]23` (as salt: hydrochloride) [Compound 9b, 12N-p-Trifluoromethlybenzenesulfonyl matrinic butyl-1’-adamantaneacetatehydrochloride]: the melting point is 227 °C (dec.). The same measure, in the same setting: under `O=C(OCCCC[C@@H]1[C@H]2CCCN3CCC[C@@H](CN1S(=O)(=O)c1ccc(C(F)(F)F)cc1)[C@@H]23)C12CC3CC(CC(Br)(C3)C1)C2` (as salt: hydrochloride) [Compound 9c, 12N-p-Trifluoromethlybenzenesulfonylmatrinicbutyl-3’-bromoadamantane-1’-carboxylate hydrochloride] stands 222 to 223 °C; under `O=C(OCCCC[C@@H]1[C@H]2CCCN3CCC[C@@H](CN1S(=O)(=O)c1cccc(C(F)(F)F)c1)[C@@H]23)C12CC3CC(CC(C3)C1)C2` (as salt: hydrochloride) [Compound 9d, 12N-m-Trifluoromethlybenzenesulfonyl matrinic butyl adamantine-1’-carboxylate hydrochloride], 190 to 191 °C.

With `O=C(CC12CC3CC(CC(C3)C1)C2)OCCCC[C@@H]1[C@H]2CCCN3CCC[C@@H](CN1S(=O)(=O)c1cccc(C(F)(F)F)c1)[C@@H]23` (as salt: hydrochloride) [Compound 9e, 12N-m-Trifluoromethlybenzenesulfonyl matrinic butyl-1’-adamantaneacetatehydrochloride], the melting point was 155 to 156 °C. Same read-out and setting: the result for `O=C(OCCCC[C@@H]1[C@H]2CCCN3CCC[C@@H](CN1S(=O)(=O)c1ccc(C(F)(F)F)cc1)[C@@H]23)C12CC3CC(CC1C3)C2` (as salt: hydrochloride) [Compound 9g, 12N-p-Trifluoromethlybenzenesulfonylmatrinicbutyl-3’-noradamantane-1’-carboxylate hydrochloride] reads 186 to 187 °C; that for `O=C(OCCCC[C@@H]1[C@H]2CCCN3CCC[C@@H](CN1S(=O)(=O)c1cccc(C(F)(F)F)c1)[C@@H]23)C12CC3CC(CC1C3)C2` (as salt: hydrochloride) [Compound 9h, 12N-m-Trifluoromethlybenzenesulfonylmatrinicbutyl-3’-noradamantane-1’-carboxylate hydrochloride], 207 °C (dec.).

Turning to `O=C(CC1CC2CCC1C2)OCCCC[C@@H]1[C@H]2CCCN3CCC[C@@H](CN1S(=O)(=O)c1ccc(C(F)(F)F)cc1)[C@@H]23` (stereo partly shown) (as salt: hydrochloride) [Compound 9i, 12N-p-Trifluoromethlybenzenesulfonyl matrinic butyl-2’-norbornane acetate hydrochloride], the melting point was 223 °C (dec.).

Take `CC(C)(C)C(=O)OCCCC[C@@H]1[C@H]2CCCN3CCC[C@@H](CN1S(=O)(=O)c1ccc(C(F)(F)F)cc1)[C@@H]23` (as salt: hydrochloride) [Compound 9k, 12N-p-Trifluoromethlybenzenesulfonyl matrinic butyl pivalate hydrochloride]: the melting point was in the range of 219 to 221 °C. Same read-out and setting: the result for `CC(C)(C)C(=O)OCCCC[C@@H]1[C@H]2CCCN3CCC[C@@H](CN1S(=O)(=O)c1cccc(C(F)(F)F)c1)[C@@H]23` (as salt: hydrochloride) [Compound 9l, 12N-m-Trifluoromethlybenzenesulfonyl matrinicbutylpivalate hydrochloride] reads 162 to 164 °C. With `NC12CC3CC(CC(C3)C1)C2` [AH, amantadine hydrochloride, reference compound], the IC50 in data set [1] came to 3.25 ± 0.5 µM; in data set [2], 2.73 µM. In data set [1], `CCCC[C@@H]1[C@H]2CCCN3CCC[C@@H](CN1S(=O)(=O)c1ccc(C(F)(F)F)cc1)[C@@H]23` [Compound 7a] gave an IC50 of 21.3 ± 1.9 µM. The compound further yielded a TC50 with MDCK cells of 79.8 ± 4.7 µM.

In data set [1], `CCCC[C@@H]1[C@H]2CCCN3CCC[C@@H](CN1S(=O)(=O)c1cccc(C(F)(F)F)c1)[C@@H]23` [Compound 7b] gave an IC50 of 28.9 ± 2.4 µM. This compound also returned a TC50 in the data set with MDCK cells of 86.6 ± 2.3 µM.

In data set [1], `CCCC[C@@H]1[C@H]2CCCN3CCC[C@@H](CN1S(=O)(=O)c1ccccc1C(F)(F)F)[C@@H]23` [Compound 7c] had an IC50 of 50 ± 1.1 µM. This compound returned a TC50 in the data set on MDCK cells of 86.6 ± 3.8 µM. The like results for `O=C(OCCCC[C@@H]1[C@H]2CCCN3CCC[C@@H](CN1S(=O)(=O)c1ccc(C(F)(F)F)cc1)[C@@H]23)C12CC3CC(CC(C3)C1)C2` [Compound 9a, 12N-p-Trifluoromethlybenzenesulfonyl matrinic butyl adamantine-1’-carboxylate hydrochloride] were, in that order, 16.5 ± 2.9 µM and 19.5 ± 2.8 µM. The like results for `O=C(CC12CC3CC(CC(C3)C1)C2)OCCCC[C@@H]1[C@H]2CCCN3CCC[C@@H](CN1S(=O)(=O)c1ccc(C(F)(F)F)cc1)[C@@H]23` [Compound 9b, 12N-p-Trifluoromethlybenzenesulfonyl matrinic butyl-1’-adamantaneacetatehydrochloride] were, in that order, 28.4 ± 2.3 µM and 61.9 ± 1.9 µM. For `O=C(OCCCC[C@@H]1[C@H]2CCCN3CCC[C@@H](CN1S(=O)(=O)c1ccc(C(F)(F)F)cc1)[C@@H]23)C12CC3CC(CC(Br)(C3)C1)C2` [Compound 9c, 12N-p-Trifluoromethlybenzenesulfonylmatrinicbutyl-3’-bromoadamantane-1’-carboxylate hydrochloride], the half-maximal inhibitory concentration (IC50) worked out at 8.2 ± 2.07 µM in data set [1] and 27.5 ± 0.1 µM in data set [2]. This compound returned a TC50 in the data set with MDCK cells of 73.6 ± 4.3 µM.

For the compound `O=C(OCCCC[C@@H]1[C@H]2CCCN3CCC[C@@H](CN1S(=O)(=O)c1cccc(C(F)(F)F)c1)[C@@H]23)C12CC3CC(CC(C3)C1)C2` [Compound 9d, 12N-m-Trifluoromethlybenzenesulfonyl matrinic butyl adamantine-1’-carboxylate hydrochloride], the IC50 in data set [1] turned out to be 5.9 ± 0.9 µM; in data set [2] it was 22.4 ± 1.3 µM. For the same compound, in the data set on MDCK cells, the TC50 stood at 54.9 ± 3.5 µM. `O=C(CC12CC3CC(CC(C3)C1)C2)OCCCC[C@@H]1[C@H]2CCCN3CCC[C@@H](CN1S(=O)(=O)c1cccc(C(F)(F)F)c1)[C@@H]23` [Compound 9e, 12N-m-Trifluoromethlybenzenesulfonyl matrinic butyl-1’-adamantaneacetatehydrochloride] showed an IC50 in data set [1] of 11.1 ± 1.5 µM. This compound also came in with a TC50 with MDCK cells of 63.4 ± 2.3 µM. For `O=C(OCCCC[C@@H]1[C@H]2CCCN3CCC[C@@H](CN1S(=O)(=O)c1ccc(C(F)(F)F)cc1)[C@@H]23)C12CC3CC(CC1C3)C2` [Compound 9g, 12N-p-Trifluoromethlybenzenesulfonylmatrinicbutyl-3’-noradamantane-1’-carboxylate hydrochloride], in data set [1], the “anti-H3N2 activity (in words)” value is listed as “complete loss in activity”. Further, the TC50 in the data set with MDCK cells is reported as 38.5 ± 6.6 µM.

Regarding `O=C(OCCCC[C@@H]1[C@H]2CCCN3CCC[C@@H](CN1S(=O)(=O)c1cccc(C(F)(F)F)c1)[C@@H]23)C12CC3CC(CC1C3)C2` [Compound 9h, 12N-m-Trifluoromethlybenzenesulfonylmatrinicbutyl-3’-noradamantane-1’-carboxylate hydrochloride], the “anti-H3N2 activity (in words)” value in data set [1] is listed as “complete loss in activity”. The compound also displayed a TC50 with MDCK cells of 59.7 ± 0.0 µM. Regarding `O=C(CC1CC2CCC1C2)OCCCC[C@@H]1[C@H]2CCCN3CCC[C@@H](CN1S(=O)(=O)c1ccc(C(F)(F)F)cc1)[C@@H]23` (stereo partly shown) [Compound 9i, 12N-p-Trifluoromethlybenzenesulfonyl matrinic butyl-2’-norbornane acetate hydrochloride], half-maximal inhibition in data set [1] (IC50) required 25.7 ± 4.8 µM. This compound also registered a TC50 in the data set on MDCK cells of 129.0 ± 20.9 µM. Consider `CC(C)(C)C(=O)OCCCC[C@@H]1[C@H]2CCCN3CCC[C@@H](CN1S(=O)(=O)c1ccc(C(F)(F)F)cc1)[C@@H]23` [Compound 9k, 12N-p-Trifluoromethlybenzenesulfonyl matrinic butyl pivalate hydrochloride], for which the TC50 in the data set on MDCK cells amounted to 94.3 ± 11.3 µM. Compound `CC(C)(C)C(=O)OCCCC[C@@H]1[C@H]2CCCN3CCC[C@@H](CN1S(=O)(=O)c1cccc(C(F)(F)F)c1)[C@@H]23` [Compound 9l, 12N-m-Trifluoromethlybenzenesulfonyl matrinicbutylpivalate hydrochloride] came in with an IC50 in data set [1] of 18.2 ± 3.2 µM. In addition, in the data set on MDCK cells, the TC50 came to 52.9 ± 8.0 µM. In the case of `CCOC(=O)[C@H](CCc1ccccc1)N[C@@H](C)C(=O)N1CCC[C@H]1C(=O)O` [enalapril, (S)-N-[1-(ethoxycarbonyl)-3-phenylpropyl]-Ala-Pro maleate, reference compound], the “stability in whole blood (in words)” value in data set [3] is “hydrolyzed quickly”.

Broadly, the melting point is the temperature, or range, at which the solid turns liquid. By IC50 is commonly meant the concentration needed to halve the response being measured. Low readings indicate higher potency, high ones lower potency.
